{"source": "patent US20210315992A1", "about": "“ADJUVANT EFFECT OF THE TLR1/2 AGONIST DIPROVOCIM SYNERGIZES WITH CHECKPOINT-INHIBITING ANTIBODIES TO ELIMINATE DISEASE” (The Board of Regents of the University of Texas System, priority 2018, published 2021)", "key": {"[1]": {"target": "T1, mouse TLR1/TLR2 heterodimer (Mus musculus, UniProt Q9EPQ1+Q9QUN7)", "T1 construct": "endogenous in cells; host or cells: thioglycollate-elicited peritoneal macrophages of C57BL/6J mice (wild type and knockout/mutant genotypes)", "T1 sequence (Q9EPQ1 26-795)": "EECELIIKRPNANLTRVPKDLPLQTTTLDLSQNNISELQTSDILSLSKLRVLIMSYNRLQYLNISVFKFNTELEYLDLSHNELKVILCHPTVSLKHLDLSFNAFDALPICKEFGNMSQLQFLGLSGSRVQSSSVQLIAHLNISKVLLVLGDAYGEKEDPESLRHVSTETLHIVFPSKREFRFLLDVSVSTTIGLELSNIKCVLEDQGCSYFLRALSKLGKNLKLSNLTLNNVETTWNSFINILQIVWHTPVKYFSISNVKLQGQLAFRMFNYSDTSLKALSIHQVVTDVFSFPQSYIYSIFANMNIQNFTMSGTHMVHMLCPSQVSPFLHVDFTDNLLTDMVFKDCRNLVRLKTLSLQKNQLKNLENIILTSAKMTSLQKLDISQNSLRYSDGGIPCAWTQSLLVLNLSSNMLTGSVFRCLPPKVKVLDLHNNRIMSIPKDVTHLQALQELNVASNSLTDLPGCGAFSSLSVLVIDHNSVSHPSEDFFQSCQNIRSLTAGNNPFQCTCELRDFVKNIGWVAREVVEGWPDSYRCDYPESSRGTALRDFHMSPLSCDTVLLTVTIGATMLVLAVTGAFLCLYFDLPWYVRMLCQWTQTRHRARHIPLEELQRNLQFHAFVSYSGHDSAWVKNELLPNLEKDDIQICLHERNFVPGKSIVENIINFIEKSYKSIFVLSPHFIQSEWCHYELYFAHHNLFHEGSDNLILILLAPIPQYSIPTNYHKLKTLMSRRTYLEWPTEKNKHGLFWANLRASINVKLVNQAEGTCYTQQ", "T1 sequence (Q9QUN7 25-784)": "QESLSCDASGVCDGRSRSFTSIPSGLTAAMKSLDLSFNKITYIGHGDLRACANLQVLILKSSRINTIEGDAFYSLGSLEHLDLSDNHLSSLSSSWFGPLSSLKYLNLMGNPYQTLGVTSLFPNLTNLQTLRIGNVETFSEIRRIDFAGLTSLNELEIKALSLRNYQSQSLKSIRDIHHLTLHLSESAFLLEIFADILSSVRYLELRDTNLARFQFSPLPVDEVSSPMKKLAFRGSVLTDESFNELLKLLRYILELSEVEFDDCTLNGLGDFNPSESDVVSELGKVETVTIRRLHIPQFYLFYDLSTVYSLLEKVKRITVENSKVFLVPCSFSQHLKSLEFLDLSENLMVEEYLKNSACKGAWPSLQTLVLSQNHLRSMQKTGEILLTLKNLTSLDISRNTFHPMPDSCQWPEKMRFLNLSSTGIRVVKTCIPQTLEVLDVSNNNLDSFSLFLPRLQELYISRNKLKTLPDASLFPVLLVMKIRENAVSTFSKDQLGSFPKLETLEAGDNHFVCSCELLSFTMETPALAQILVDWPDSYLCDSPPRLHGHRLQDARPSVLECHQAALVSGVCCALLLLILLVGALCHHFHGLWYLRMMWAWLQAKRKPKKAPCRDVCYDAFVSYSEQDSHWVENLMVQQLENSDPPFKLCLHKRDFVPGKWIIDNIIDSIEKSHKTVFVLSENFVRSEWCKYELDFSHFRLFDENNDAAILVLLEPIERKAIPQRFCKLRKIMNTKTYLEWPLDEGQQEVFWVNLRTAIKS", "test": "TNF induction in peritoneal macrophages from mice deficient in TLR signaling components", "type": "cell-based", "conditions": "500 nM, 4 hours, vs C57BL/6J cells", "from_the_text": "(§1) C57BL/6J, Tlr2^−/−, Myd88^−/− and OT-I mice were purchased from The Jackson Laboratory. Ly96^−/− (MD-2^−/−) mice were from RIKEN BRC. Tlr4^1ps3/lps3, Tlr6^int/int, Tlr7^rsql/rsql, Tirapt^tor/tor, Ticam1^Lps2/Lps2, Ticam1^Lps2/Lps2/Irak4^otiose/otiose mice were generated on a pure C57BL/6J background by ENU mutagenesis and are described at http://mutagenetix.utsouthwestern.edu.\n(§2) Tlr1^−/− mice were created by CRISPR/Cas 9 gene targeting. Female C57BL/6J mice were superovulated by injection of 6.5 U pregnant mare serum gonadotropin (PMSG; Millipore), followed by injection of 6.5 U human chorionic gonadotropin (hCG; Sigma-Aldrich) 48 hours later. The superovulated mice were subsequently mated overnight with C57BL/6J male mice. The following day, fertilized eggs were collected from the oviducts and in vitro-transcribed Cas9 mRNA (50 ng/μl) and Tlr1 small base-pairing guide RNA (50 ng/μl; 5′-[…]-3′; SEQ ID NO: XX) were injected into the cytoplasm or pronucleus of the embryos. […]\n(§3) Cells were seeded onto 96-well plates at 1×10^5 cells per well and stimulated with a Diprovocim (dissolved in DMSO, and final DMSO concentrations (0.2%) were kept constant in all experiments) for 4 h. Mouse TNF, IL-6, or IFN-β, or human TNF in the supernatants were measured by ELISA kits according to the manufacturer's instructions (eBioscience and PBL Assay Science). […]"}, "[2]": {"system": "mouse TLR1/TLR2 heterodimer", "test": "TNF induction in peritoneal macrophages from mice deficient in TLR signaling components", "type": "cell-based", "conditions": "500 nM, 4 hours, vs C57BL/6J cells", "from_the_text": "as §1, §2, §3"}}, "data": [{"smiles": "O=C(N[C@H]1C[C@@H]1c1ccccc1)[C@@H]1CN(C(=O)c2ccc(C(=O)N3C[C@@H](C(=O)N[C@H]4C[C@@H]4c4ccccc4)[C@H](C(=O)N[C@H]4C[C@@H]4c4ccccc4)C3)cc2)C[C@H]1C(=O)N[C@H]1C[C@@H]1c1ccccc1", "note": "[Diprovocim-1, (3S,3'S,4S,4'S)-1,1′-Terephthaloylbis(N^3,N^4-bis((1S,2R)-2-phenylcyclo-propyl)pyrrolidine-3,4-dicarboxamide)]", "values": [{"measurement": "activity (TNF) in macrophages from MyD88-, TIRAP-, and IRAK4-deficient cells", "setting": "[1]", "value": "dramatically reduced"}, {"measurement": "induction of TNF in TLR1- or TLR2-deficient macrophages", "setting": "[2]", "value": "completely absent"}]}]}
